The numbers were not newly measured in patent publication US20140235496A1, “STIMULUS-ELICITED GENOMIC PROFILE MARKERS OF A NEURODEGENERATIVE CONDITION” (Blanchette Rockefeller Neurosciences Institute, priority 2011, published 2014), which cites them from elsewhere.

Structures are written as SMILES.

The subject of this series is PKC. Conditions: shown to be effective; see US 2010/0022645.

For the compound `CCC1CC1CC1CC1CC1CC1CC1CC1CC1CC1CC1CC1CCC(=O)O` (stereo not shown) [DHA-CP6], the effective concentration is 10 nM.
